{"source": "patent US8017386B2", "about": "“Divinyl ether synthase gene and protein, and uses thereof” (priority 2000, dated 2011)", "key": {"[1]": {"biological_target": "T1, CYP74D1 (Solanum lycopersicum, UniProt Q9FPM6)", "T1 sequence (Q9FPM6 10-478 limits assumed)": "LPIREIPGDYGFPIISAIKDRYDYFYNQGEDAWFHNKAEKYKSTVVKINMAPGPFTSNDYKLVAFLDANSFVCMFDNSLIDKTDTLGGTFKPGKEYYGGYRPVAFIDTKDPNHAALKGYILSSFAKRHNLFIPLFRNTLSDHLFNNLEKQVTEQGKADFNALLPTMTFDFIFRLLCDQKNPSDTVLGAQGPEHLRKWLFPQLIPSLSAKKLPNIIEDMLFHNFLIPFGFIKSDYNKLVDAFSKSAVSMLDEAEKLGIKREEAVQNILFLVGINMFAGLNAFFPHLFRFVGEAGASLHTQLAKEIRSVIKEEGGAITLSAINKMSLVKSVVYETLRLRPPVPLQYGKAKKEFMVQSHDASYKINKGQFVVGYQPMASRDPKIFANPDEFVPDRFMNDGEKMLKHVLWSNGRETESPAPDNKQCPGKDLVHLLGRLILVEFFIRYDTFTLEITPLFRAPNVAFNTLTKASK"}, "[2]": {"biological_target": "T2, CYP74D1 (Solanum lycopersicum, UniProt Q9FPM6)", "experiment": "Kinetic assays with affinity purified CYP74D-6H (decrease in A234)", "details": "for estimated turnover rate (kcat): purified CYP74D-6H, assuming the total protein content to be active; for Km: read-out: apparent Km, recombinant DES (summary in description)", "T2 sequence (Q9FPM6 whole entry)": "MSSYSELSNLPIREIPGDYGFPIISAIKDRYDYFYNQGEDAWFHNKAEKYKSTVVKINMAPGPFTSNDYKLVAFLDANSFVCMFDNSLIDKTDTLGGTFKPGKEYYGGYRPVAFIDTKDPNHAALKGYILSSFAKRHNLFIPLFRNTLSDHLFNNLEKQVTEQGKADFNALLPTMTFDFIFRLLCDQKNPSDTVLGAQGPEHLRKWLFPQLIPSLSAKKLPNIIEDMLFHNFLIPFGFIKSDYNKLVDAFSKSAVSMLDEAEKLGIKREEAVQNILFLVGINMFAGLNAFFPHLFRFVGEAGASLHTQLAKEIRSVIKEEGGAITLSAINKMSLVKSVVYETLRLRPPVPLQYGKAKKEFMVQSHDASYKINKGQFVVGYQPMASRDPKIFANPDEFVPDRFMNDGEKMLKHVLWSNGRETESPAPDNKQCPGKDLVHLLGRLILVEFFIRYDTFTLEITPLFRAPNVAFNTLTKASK"}, "[3]": {"biological_target": "T2, CYP74D1", "remark": "listed apart in the source"}}}
{"smiles": "CCCCC/C=C\\C=C\\[C@H](CCCCCCCC(=O)O)OO", "note": "[9-HPOD, 9(S)-hydroperoxy-10(E),12(Z)-octadecadienoic acid]", "values": [{"measurement": "metabolism by extracts containing 6H-CYP74D (in words)", "setting": "[1]", "result": "efficiently metabolized"}, {"measurement": "estimated turnover rate (kcat)", "setting": "[2]", "result": 890, "unit": "s⁻¹"}, {"measurement": "Km", "setting": "[2]", "result": "~67", "unit": "µM"}]}
{"smiles": "CC/C=C\\C/C=C\\C=C\\[C@H](CCCCCCCC(=O)O)OO", "note": "[9-HPOT, 9(S)-hydroperoxy-10(E),12(Z),15(Z)-octadecatrienoic acid]", "values": [{"measurement": "metabolism by extracts containing 6H-CYP74D (in words)", "setting": "[1]", "result": "efficiently metabolized"}, {"measurement": "estimated turnover rate (kcat)", "setting": "[2]", "result": 500, "unit": "s⁻¹"}, {"measurement": "Km", "setting": "[2]", "result": "~48", "unit": "µM"}]}
{"smiles": "CCCCC[C@@H](/C=C/C=C\\CCCCCCCC(=O)O)OO", "note": "[13-HPOD, 13(S)-hydroperoxy-9(Z),11(E)-octadecadienoic acid]", "values": [{"measurement": "metabolism by extracts containing 6H-CYP74D (in words)", "setting": "[1]", "result": "poor substrates"}]}
{"smiles": "CC/C=C\\C[C@@H](/C=C/C=C\\CCCCCCCC(=O)O)OO", "note": "[13-HPOT, 13(S)-hydroperoxy-9(Z),11(E),15(Z)-octadecatrienoic acid]", "values": [{"measurement": "metabolized at % of the rate observed for 9-HPOD", "setting": "[3]", "result": "< 5", "unit": "%"}, {"measurement": "metabolism by extracts containing 6H-CYP74D (in words)", "setting": "[1]", "result": "poor substrates"}]}
